Measurements taken from ChEMBL document CHEMBL3885861, “Open TG-GATES”.

Species: Rattus norvegicus
Assay: Open TG-GATES - Regimen: Daily Repeat
Format: toxicity, organism-based, Sprague-Dawley
Parameters: regimen Daily Repeat, gender Male, age 6 weeks
Conditions: in vivo, po, 100 mg/kg, route gavage, dose level Low; for APTT / Bas / Eos / Fbg / Hb / Ht / Lym / MCH / MCHC / MCV / Mono / Neu / PT / Plat / RBC / Ret / WBC: tissue Blood
[1] = 72 h, tissue Kidney, time 3 day
[2] = 72 h, tissue Plasma, time 3 day

`O=C(O)c1cc(/N=N/c2ccc(S(=O)(=O)Nc3ccccn3)cc2)ccc1O` [SULFASALAZINE] showed a TERMINAL_BW (72 h, time 3 day) of 236.6 g, an APTT (72 h, time 3 day) of 18.4 s and a Bas (72 h, time 3 day) of 0%. The Eos (72 h, time 3 day) was 1%, the Fbg (72 h, time 3 day) was 226.6 mg/dL and the Hb (72 h, time 3 day) was 13.6 g/dL. It also gave a Ht (72 h, time 3 day) of 39.7%, a Lym (72 h, time 3 day) of 79.8% and an MCH (72 h, time 3 day) of 21.5 pg. For the same compound, the MCHC (72 h, time 3 day) was 34.3%, the MCV (72 h, time 3 day) was 62.6 fL and the Mono (72 h, time 3 day) was 3.2%. For the same compound, the Neu (72 h, time 3 day) was 14.4%, the PT (72 h, time 3 day) was 12.6 s and the Plat (72 h, time 3 day) was 129.7 x10_4/uL. For the same compound, the RBC (72 h, time 3 day) was 634.2 x10_4/ul, the Ret (72 h, time 3 day) was 6.4% and the WBC (72 h, time 3 day) was 114.1 x10_2/uL. It also gave a KIDNEY_L [1] of 1 g, a KIDNEY_R [1] of 1 g and a KIDNEY_TOTAL [1] of 2 g. It also gave an LIVER (72 h, tissue Liver, time 3 day) of 10.9 g, an A/G [2] of 1.5 and an ALP [2] of 979.2 IU/L. The ALT [2] was 44.4 IU/L, the AST [2] was 86.8 IU/L and the BUN [2] was 16.4 mg/dL. It also gave a CRE [2] of 0.4 mg/dL, a Ca [2] of 10.9 mg/dL and a Cl [2] of 103 meq/L. For the same compound, the DBIL [2] was 0.09 mg/dL, the GLC [2] was 201 mg/dL and the IP [2] was 7.4 mg/dL. It also gave a K [2] of 4.2 meq/L, an LDH [2] of 286.8 IU/L and a Na [2] of 140.4 meq/L. It also gave a PL [2] of 154.6 mg/dL, an RALB [2] of 3.3 g/dL and a TBIL [2] of 0.1 mg/dL. The TC [2] was 76.8 mg/dL, the TG [2] was 83.4 mg/dL and the TP [2] was 5.6 g/dL. For the same compound, the gamma-GTP [2] was 1.4 IU/L, the TERMINAL_BW ([…], time 7 day) was 262.7 g and the TERMINAL_BW ([…], time 14 day) was 309.6 g. For the same compound, the TERMINAL_BW ([…], time 28 day) was 389.8 g, the APTT ([…], time 7 day) was 19.1 s and the Bas ([…], time 7 day) was 0%. It also gave an Eos ([…], time 7 day) of 1%, a Fbg ([…], time 7 day) of 216.2 mg/dL and a Hb ([…], time 7 day) of 13.8 g/dL. The Ht ([…], time 7 day) was 39.9%, the Lym ([…], time 7 day) was 82% and the MCH ([…], time 7 day) was 21.1 pg. The MCHC ([…], time 7 day) was 34.5%, the MCV ([…], time 7 day) was 61.3 fL and the Mono ([…], time 7 day) was 1.8%. It also gave a Neu ([…], time 7 day) of 13.6%, a PT ([…], time 7 day) of 12.5 s and a Plat ([…], time 7 day) of 116 x10_4/uL. It also gave an RBC ([…], time 7 day) of 651.8 x10_4/ul, a Ret ([…], time 7 day) of 5.1% and a WBC ([…], time 7 day) of 110 x10_2/uL. It also gave an APTT ([…], time 14 day) of 19.4 s, a Bas ([…], time 14 day) of 0% and an Eos ([…], time 14 day) of 1%. For the same compound, the Fbg ([…], time 14 day) was 214 mg/dL, the Hb ([…], time 14 day) was 14.5 g/dL and the Ht ([…], time 14 day) was 41.3%. For the same compound, the Lym ([…], time 14 day) was 79.2%, the MCH ([…], time 14 day) was 21.2 pg and the MCHC ([…], time 14 day) was 35.1%. For the same compound, the MCV ([…], time 14 day) was 60.4 fL, the Mono ([…], time 14 day) was 2.6% and the Neu ([…], time 14 day) was 16.2%. The PT ([…], time 14 day) was 12.5 s, the Plat ([…], time 14 day) was 107.7 x10_4/uL and the RBC ([…], time 14 day) was 684.4 x10_4/ul. For the same compound, the Ret ([…], time 14 day) was 4.6%, the WBC ([…], time 14 day) was 116.3 x10_2/uL and the APTT ([…], time 28 day) was 19.7 s. For the same compound, the Bas ([…], time 28 day) was 0%, the Eos ([…], time 28 day) was 1% and the Fbg ([…], time 28 day) was 231 mg/dL. It also gave a Hb ([…], time 28 day) of 15.1 g/dL and a Ht ([…], time 28 day) of 42.4%.
